Results reported in US11291643B2, “Methods of treating hypertriglyceridemia” (Amarin Pharmaceuticals Ireland Limited, priority 2011, dated 2022).

Experiments:
Type in all cases: in vivo, human
[1] = system: patients with fasting triglyceride levels ≥500 mg/dL; assay: Lipoprotein particle size by NMR spectroscopy in the clinical study; conditions: for VLDL particle size, placebo-adjusted median percent change from baseline: Hodges-Lehmann median; for HDL particle size, median change from baseline / LDL particle size, median change from baseline / VLDL particle size, median change from baseline: baseline to study end; for HDL particle size, end-of-treatment value (median) / LDL particle size, end-of-treatment value (median) / VLDL particle size, end-of-treatment value (median): study end
Protocol: (§1) Lipoprotein particle concentrations and sizes were measured with nuclear magnetic resonance spectroscopy in the above described clinical trial. Lipoprotein particle size and concentration parameters were obtained from fasting blood samples. Lipoprotein particle size and concentrations are measured by nuclear magnetic resonance (NMR) spectroscopy at LipoScience, Inc. (Raleigh, N.C.) using the LipoProfile-3 algorithm. VLDL, LDL, and HDL subclasses of different size were quantified from the amplitudes of their spectroscopically-distinct lipid methyl group NMR signals.
(§2) Subjects with missing baseline or Week 12 measurements, due to either missing laboratory samples or un-reportable values, were excluded from this analysis. The median difference of each lipoprotein particle variable (percent change from baseline) between each AMR101 treatment group and the placebo group was evaluated with a nonparametric test using the Hodges-Lehmann medians of the differences between treatment groups and the Wilcoxon rank-sum test (significance level 0.05). All statistical analyses were carried out using SAS 9.2 software.

[2] = system: patients with fasting triglyceride levels ≥500 mg/dL; assay: 12-week placebo-controlled double-blind clinical study: fasting lipid parameters
Protocol: A multi-center, placebo-controlled randomized, double-blind, 12-week study with an open-label extension was performed to evaluate the efficacy and safety of AMR101 in patients with fasting triglyceride levels ≥500 mg/dL. The primary objective of the study was to determine the efficacy of AMR101 2 g daily and 4 g daily, compared to placebo, in lowering fasting TG levels in patients with fasting TG levels ≥500 mg/dL and ≤1500 mg/dL (≥5.65 mmol/L and ≤16.94 mmol/L). The population for this study was men and women (women of childbearing potential needed to be on contraception or practice abstinence) >18 years of age with a body mass index ≤45 kg/m^2 who were not on lipid-altering therapy or are currently on lipid-altering therapy. Patients currently on statin therapy (with or without ezetimibe) were evaluated by the investigator as to whether this therapy could be safely discontinued at screening, or if it should be continued. If statin therapy (with or without ezetimibe) was to be continued, dose(s) must be stable for ≥4 weeks prior to randomization. Patients taking non-statin, lipid-altering medications (niacin >200 mg/day, fibrates, fish oil, other products containing omega-3 fatty acids, or other herbal products or dietary supplements with potential lipid-altering effects), either alone or in combination with statin therapy (with or without ezetimibe), must have been able to safely discontinue non-statin, lipid-altering therapy at screening. Approximately 240 patients were sought to be randomized at approximately 50 centers in North America, South America, Central America, Europe, India, and South Africa. The study was be a 58- to 60-week, Phase 3, multi-center study consisting of 3 study periods: (1) A 6- to 8-week screening period that included a diet and lifestyle stabilization and washout period and a TG qualifying period; (2) A 12-week, double-blind, randomized, placebo-controlled treatment period; and (3) A 40-week, open-label, extension period. After confirmation of qualifying fasting TG values, eligible patients entered a 12-week, randomized, double-blind treatment period. At Visit 4 (Week 0), patients were randomly assigned to 1 of the following treatment groups: • AMR101 2 g daily, • AMR101 4 g daily, or • Placebo. Eligible patients were randomly assigned at Visit 4 (Week 0) to receive orally AMR101 2 g daily, AMR101 4 g daily, or placebo for the 12-week double-blind treatment period. AMR101 was provided in 1 g liquid-filled, oblong, gelatin capsules. The matching placebo capsule was filled with light liquid paraffin and contained 0 g of AMR101. During the double-blind treatment period, patients took 2 capsules (AMR101 or matching placebo) in the morning and 2 in the evening for a total of 4 capsules per day. Patients in the AMR101 2 g/day treatment group received 1 AMR101 1 g capsule and 1 matching placebo capsule in the morning and in the evening. Patients in the AMR101 4 g/day treatment group received 2 AMR101 1 g capsules in the morning and evening. The primary efficacy variable for the double-blind treatment period was percent change in TG from baseline to Week 12 endpoint. […]

[3] = system: patients with fasting triglyceride levels ≥500 mg/dL; assay: Lipoprotein particle concentration by NMR spectroscopy in the clinical study; conditions: 2 g/day vs placebo
Protocol: as §1
Concentrations of the following subclasses of lipoproteins were analyzed in this study: small LDL (18.0-20.5 nm), large LDL (20.5-23.0 nm), intermediate-density lipoprotein (IDL; 23.0-29.0 nm), large high-density lipoprotein (HDL; 9.4-14.0 nm), medium HDL (8.2-9.4 nm), small HDL (7.3-8.2 nm), large very-low-density lipoprotein (VLDL; >60 nm), medium VLDL (42-60 nm), and small VLDL (29-42 nm).
as §2

CC/C=C\C/C=C\C/C=C\C/C=C\C/C=C\CCCC(=O)OCC [AMR101, ethyl eicosapentaenoate]
VLDL particle size, placebo-adjusted median percent change from baseline ([1]; 2 g/day vs placebo): −4.0% | HDL particle size, median change from baseline ([1]; 2 g/day, n = 63): 0.0% | LDL particle size, median change from baseline ([1]; 2 g/day, n = 63): 0.0% | VLDL particle size, median change from baseline ([1]; 2 g/day, n = 63): −3.4% | HDL particle size, end-of-treatment value (median) ([1]; 2 g/day, n = 63): 8.9 nm | LDL particle size, end-of-treatment value (median) ([1]; 2 g/day, n = 63): 19.6 nm | VLDL particle size, end-of-treatment value (median) ([1]; 2 g/day, n = 63): 60.6 nm | VLDL particle size, placebo-adjusted median percent change from baseline ([1]; 4 g/day vs placebo): −8.6% | LDL particle size, median change from baseline ([1]; 4 g/day, n = 60): 0.0% | LDL particle size, end-of-treatment value (median) ([1]; 4 g/day, n = 60): 19.7 nm | HDL particle size, median change from baseline ([1]; 4 g/day, n = 61): 1.1% | VLDL particle size, median change from baseline ([1]; 4 g/day, n = 61): −8.6% | HDL particle size, end-of-treatment value (median) ([1]; 4 g/day, n = 61): 8.9 nm | VLDL particle size, end-of-treatment value (median) ([1]; 4 g/day, n = 61): 55.7 nm | Apo B median percent change, AMR101 2 g/day vs. Placebo ([2]; 2 g/day vs placebo, 12 weeks): −2.6% | HDL-C median percent change, AMR101 2 g/day vs. Placebo ([2]; 2 g/day vs placebo, 12 weeks): 1.5% | LDL-C median percent change, AMR101 2 g/day vs. Placebo ([2]; 2 g/day vs placebo, 12 weeks): 5.2% | Lp-PLA2 median percent change, AMR101 2 g/day vs. Placebo ([2]; 2 g/day vs placebo, 12 weeks): −5.1% | Non-HDL-C median percent change, AMR101 2 g/day vs. Placebo ([2]; 2 g/day vs placebo, 12 weeks): −8.1% | TC median percent change, AMR101 2 g/day vs. Placebo ([2]; 2 g/day vs placebo, 12 weeks): −6.8% | TG median percent change, AMR101 2 g/day vs. Placebo ([2]; 2 g/day vs placebo, 12 weeks): −19.7% | VLDL-C median percent change, AMR101 2 g/day vs. Placebo ([2]; 2 g/day vs placebo, 12 weeks): −15.3% | VLDL-TG median percent change, AMR101 2 g/day vs. Placebo ([2]; 2 g/day vs placebo, 12 weeks): −17.3% | Apo B median percent change from baseline ([2]; 2 g/day, 12 weeks): 2.1% | HDL-C median percent change from baseline ([2]; 2 g/day, 12 weeks): 0.0% | LDL-C median percent change from baseline ([2]; 2 g/day, 12 weeks): −2.5% | Lp-PLA2 median percent change from baseline ([2]; 2 g/day, 12 weeks): −5.1% | Non-HDL-C median percent change from baseline ([2]; 2 g/day, 12 weeks): 0.0% | TC median percent change from baseline ([2]; 2 g/day, 12 weeks): 0.7% | TG median percent change from baseline ([2]; 2 g/day, 12 weeks): −7.0% | VLDL-C median percent change from baseline ([2]; 2 g/day, 12 weeks): 0.0% | VLDL-TG median percent change from baseline ([2]; 2 g/day, 12 weeks): −6.4% | Apo B median percent change, AMR101 4 g/day vs. Placebo ([2]; 4 g/day vs placebo, 12 weeks): −8.5% | HDL-C median percent change, AMR101 4 g/day vs. Placebo ([2]; 4 g/day vs placebo, 12 weeks): −3.6% | LDL-C median percent change, AMR101 4 g/day vs. Placebo ([2]; 4 g/day vs placebo, 12 weeks): −2.3% | Lp-PLA2 median percent change, AMR101 4 g/day vs. Placebo ([2]; 4 g/day vs placebo, 12 weeks): −13.6% | Non-HDL-C median percent change, AMR101 4 g/day vs. Placebo ([2]; 4 g/day vs placebo, 12 weeks): −17.7% | TC median percent change, AMR101 4 g/day vs. Placebo ([2]; 4 g/day vs placebo, 12 weeks): −16.3% | TG median percent change, AMR101 4 g/day vs. Placebo ([2]; 4 g/day vs placebo, 12 weeks): −33.1% | VLDL-C median percent change, AMR101 4 g/day vs. Placebo ([2]; 4 g/day vs placebo, 12 weeks): −28.6% | VLDL-TG median percent change, AMR101 4 g/day vs. Placebo ([2]; 4 g/day vs placebo, 12 weeks): −25.8% | Apo B median percent change from baseline ([2]; 4 g/day, 12 weeks): −3.8% | HDL-C median percent change from baseline ([2]; 4 g/day, 12 weeks): −3.5% | LDL-C median percent change from baseline ([2]; 4 g/day, 12 weeks): −4.5% | Lp-PLA2 median percent change from baseline ([2]; 4 g/day, 12 weeks): −17.1% | Non-HDL-C median percent change from baseline ([2]; 4 g/day, 12 weeks): −7.7% | TC median percent change from baseline ([2]; 4 g/day, 12 weeks): −7.3% | TG median percent change from baseline ([2]; 4 g/day, 12 weeks): −26.6% | VLDL-C median percent change from baseline ([2]; 4 g/day, 12 weeks): −19.5% | VLDL-TG median percent change from baseline ([2]; 4 g/day, 12 weeks): −25.2% | Reduction of median apolipoprotein B compared with placebo ([2]; 4 g/day, previously reported, stated as reduction): 8.5% | Small LDL particle concentration, placebo-adjusted median percent change from baseline ([3]; Hodges-Lehmann median): −12.8% | Total HDL particle concentration, placebo-adjusted median percent change from baseline ([3]; Hodges-Lehmann median): −3.0% | Total LDL particle concentration, placebo-adjusted median percent change from baseline ([3]; Hodges-Lehmann median): −1.1% | Reduction of small LDL particle concentration ([3]; stated as reduction): 12.8%
